Measured values reported in patent US20070155730A1, “Benzodiazepine And Benzopiperazine Analog Inhibitors Of Histone Deacetylase” (METHYLGENE, INC., priority 2005, published 2007).

Molecular target: histone deacetylase (HDAC)
Experiment: Inhibition of Histone Deacetylase Enzymatic Activity
Format: biochemical
Conditions: substrate Boc-Lys(Ac)-AMC, Fluor-de-Lys developer, 37° C., 20 min; against one or more of HDAC-1 to HDAC-11, SirT1 to SirT7 (isoform not given); read-out: HDAC Inhibitory Activity (IC50)
Procedure: The following protocol is used to assay the compounds of the invention. In the assay, the buffer used is 25 mM HEPES, pH 8.0, 137 mM NaCl, 2.7 mM KCl, 1 mM MgCl2 and the substrate is Boc-Lys(Ac)-AMC in a 50 mM stock solution in DMSO. The enzyme stock solution is 4.08 μg/mL in buffer.
The compounds are pre-incubated (2 μl in DMSO diluted to 13 μl in buffer for transfer to assay plate) with enzyme (20 μl of 4.08 μg/mL) for 10 min at room temperature (35 μl pre-incubation volume). The mixture is pre-incubated for 5 min at room temperature. The reaction is started by bringing the temperature to 37° C. and adding 16 μl substrate. Total reaction volume is 50 μl. […] A plate is incubated in the dark for 10 min at room temperature before reading (λEX=360 nm, λEm=470 nm, Cutoff filter at 435 nm).
In the table, “A” indicates inhibitory activity at a concentration of <0.05 μM; “B” indicates inhibitory activity at a concentration >0.05 μM but <0.5 μM, “C” indicates inhibitory activity at >0.5 μM but <2 μM and “D” indicates inhibitory activity at a concentration of >2 μM but <10 μM.

Row | SMILES | IC50
1 | CSCC[C@@H]1Nc2ccc(C(=O)NO)cc2NC1=O [Compound 4b, (S)-1,2,3,4-tetrahydro-N-hydroxy-2-(2-(methylthio)ethyl)-3-oxoquinoxaline-6-carboxamide] | 2000 to 10000 nM
2 | O=C(NO)c1ccc2c(c1)NC(=O)[C@H](Cc1c[nH]c3ccccc13)N2 [Compound 4c, (S)-2-((1H-indol-3-yl)methyl)-1,2,3,4-tetrahydro-N-hydroxy-3-oxoquinoxaline-6-carboxamide] | 500 to 2000 nM
3 | O=C(NO)c1ccc2c(c1)NC(=O)[C@@H](Cc1c[nH]c3ccccc13)N2 [Compound 4f, (R)-2-((1H-indol-3-yl)methyl)-1,2,3,4-tetrahydro-N-hydroxy-3-oxoquinoxaline-6-carboxamide] | 2000 to 10000 nM
4 | CC(C)(C)Oc1ccc(C[C@@H]2Nc3ccc(C(=O)NO)cc3NC2=O)cc1 [Compound 4h, (S)-2-(4-tert-butoxybenzyl)-1,2,3,4-tetrahydro-N-hydroxy-3-oxoquinoxaline-6-carboxamide] | 2000 to 10000 nM
5 | O=C(NO)c1ccc2c(c1)NC(=O)[C@H](Cc1ccccc1)N2 [Compound 4i, (S)-2-Benzyl-1,2,3,4-tetrahydro-N-hydroxy-3-oxoquinoxaline-6-carboxamide] | 2000 to 10000 nM
6 | Cn1cc(C[C@@H]2Nc3ccc(C(=O)NO)cc3NC2=O)c2ccccc21 [Compound 4l, (S)-1,2,3,4-tetrahydro-N-hydroxy-2-((1-methyl-1-H-indol-3-yl)methyl)-3-oxoquinoxaline-6-carboxamide] | 500 to 2000 nM
7 | COc1ccc(CN2c3ccc(C(=O)NO)cc3NC(=O)[C@@H]2C(C)C)cc1 [Compound 8, (S)-1-(4-Methoxybenzyl)-1,2,3,4-tetrahydro-N-hydroxy-2-isopropyl-3oxoquinoxaline-6-carboxamide] | 500 to 2000 nM
8 | CC(C)[C@H]1C(=O)Nc2cc(C(=O)NO)ccc2N1Cc1ccc(O)cc1 [Compound 16b, (S)-1-(4-hydroxybenzyl)-1,2,3,4-tetrahydro-N-hydroxy-2-isopropyl-3-oxoquinoxaline-6-carboxamide] | 500 to 2000 nM
9 | CC(C)[C@H]1C(=O)Nc2cc(C(=O)NO)ccc2N1Cc1ccc(C(=O)O)cc1 [Compound 16d, 4-(((S)-7-(hydroxycarbamoyl)-2,3-dihydro-3-isopropyl-2-oxoquinoxalin-4(1H)-yl)methyl)benzoic acid] | 2000 to 10000 nM
10 | CC(C)[C@H]1C(=O)Nc2cc(C(=O)NO)ccc2N1Cc1cccs1 [Compound 16e, (S)-1,2,3,4-tetrahydro-N-hydroxy-2-isopropyl-3-oxo-1-((thiophen-2-yl)methyl)quinoxaline-6-carboxamide] | 2000 to 10000 nM
11 | CC(C)[C@H]1C(=O)Nc2cc(C(=O)NO)ccc2N1Cc1ccccc1 [Compound 16g, (S)-1-benzyl-1,2,3,4-tetrahydro-N-hydroxy-2-isopropyl-3-oxoquinoxaline-6-carboxamide] | 2000 to 10000 nM
12 | CC(C)[C@H]1C(=O)Nc2cc(C(=O)NO)ccc2N1S(=O)(=O)c1cccc2ccccc12 [Compound 18f] | 500 to 2000 nM

Continued, values first:

Row | IC50 | SMILES
13 | 50 to 500 nM | O=C(CCOC1C[C@@H](C(=O)Nc2cccc3cccnc23)N(C(=O)OCc2ccccc2)C1)NO (stereo in doubt) [Compound 112d, (2S,4S)-benzyl 4-(3-(hydroxyamino)-3-oxopropoxy)-2-(quinolin-8-ylcarbamoyl) pyrrolidine-1-carboxylate]
14 | 2000 to 10000 nM | CC(C)[C@@H]1Nc2ccc(C(=O)NO)cc2NC1=O [Compound 4a, (S)-1,2,3,4-Tetrahydro-N-hydroxy-2-isopropyl-3-oxoquinoxaline-6-carboxamide]
15 | 2000 to 10000 nM | CCC(C)[C@@H]1Nc2ccc(C(=O)NO)cc2NC1=O (stereo partly drawn) [Compound 4d, (S)-2-sec-butyl-1,2,3,4-tetrahydro-N-hydroxy-3-oxoquinoxaline-6-carboxamide]
16 | 2000 to 10000 nM | CC(C)[C@H]1Nc2ccc(C(=O)NO)cc2NC1=O [Compound 4e, (R)-1,2,3,4-tetrahydro-N-hydroxy-2-isopropyl-3-oxoquinoxaline-6-carboxamide]
17 | 2000 to 10000 nM | O=C(NO)c1ccc2c(c1)NC(=O)[C@H](Cc1cn(C(c3ccccc3)(c3ccccc3)c3ccccc3)cn1)N2 [Compound 4g, (S)-1,2,3,4-tetrahydro-N-hydroxy-3-oxo-2-((1-trityl-1H-imidazol-4-yl)methyl)quinoxaline-6-carboxamide]
18 | 2000 to 10000 nM | CC(C)C[C@@H]1Nc2ccc(C(=O)NO)cc2NC1=O [Compound 4k, (S)-1,2,3,4-Tetrahydro-N-hydroxy-2-isobutyl-3-oxoquinoxaline-6-carboxamide]
19 | 2000 to 10000 nM | Nc1ccccc1NC(=O)c1ccc2c(c1)NC(=O)[C@H](Cc1c[nH]c3ccccc13)N2 [Compound 5c, (S)-2-((1H-indol-3-yl)methyl)-N-(2-aminophenyl)-1,2,3,4-tetrahydro-3-oxoquinoxaline-6-carboxamide]
20 | 2000 to 10000 nM | O=C(NO)c1ccc2c(c1)NC(=O)[C@H](Cc1ccc(O)cc1)N2 [Compound 6h, (S)-2-(4-Hydroxybenzyl)-1,2,3,4-tetrahydro-N-hydroxy-3-oxoquinoxaline-6-carboxamide]
21 | 50 to 500 nM | CC(C)[C@@H]1Nc2ccc(C(=O)NCCCCCC(=O)NO)cc2NC1=O [Compound 13, (S)—N-(5-(Hydroxycarbamoyl)pentyl)-1,2,3,4-tetrahydro-2-isopropyl-3-oxoquinoxaline-6-carboxamide]
22 | 2000 to 10000 nM | CC(C)[C@H]1C(=O)Nc2cc(C(=O)NO)ccc2N1Cc1ccc(F)cc1 [Compound 16a, (S)-1-(4-fluorobenzyl)-N-hydroxy-2-isopropyl-3-oxo-1,2,3,4-tetrahydroquinoxaline-6-carboxamide]
23 | 500 to 2000 nM | CC(C)[C@H]1C(=O)Nc2cc(C(=O)NO)ccc2N1CCCc1ccccc1 [Compound 16c, (S)-1,2,3,4-tetrahydro-N-hydroxy-2-isopropyl-3-oxo-1-(3-phenylpropyl)quinoxaline-6-carboxamide]
24 | 50 to 500 nM | CC(C)[C@H]1C(=O)Nc2cc(C(=O)NO)ccc2N1Cc1ccc(C(=N)NO)cc1 [Compound 16f, (S)—N-hydroxy-1-(4-(N-hydroxycarbamimidoyl)benzyl)-2-isopropyl-3-oxo-1,2,3,4-tetrahydroquinoxaline-6-carboxamide]
25 | 500 to 2000 nM | CC(C)[C@H]1C(=O)Nc2cc(C(=O)NO)ccc2N1Cc1ccc2ccccc2c1 [Compound 16h, (S)-1,2,3,4-tetrahydro-N-hydroxy-2-isopropyl-1-((naphthalen-3-yl)methyl)-3-oxoquinoxaline-6-carboxamide]
26 | 2000 to 10000 nM | CC(C)[C@H]1C(=O)Nc2cc(C(=O)NO)ccc2N1S(=O)(=O)c1ccccc1 [Compound 18a, (S)—N-hydroxy-2-isopropyl-3-oxo-1-(phenylsulfonyl)-1,2,3,4-tetrahydroquinoxaline-6-carboxamide]
27 | 500 to 2000 nM | CC(C)[C@H]1C(=O)Nc2cc(C(=O)NO)ccc2N1S(=O)(=O)c1ccc(-c2ccccc2)cc1 [Compound 18b, (S)—N-hydroxy-1-(biphenyl-4-sulfonyl)-2-isopropyl-3-oxo-1,2,3,4-tetrahydroquinoxaline-6-carboxamide]
28 | 2000 to 10000 nM | Cc1cc(C)c(S(=O)(=O)N2c3ccc(C(=O)NO)cc3NC(=O)[C@@H]2C(C)C)c(C)c1 [Compound 18c, (S)—N-hydroxy-2-isopropyl-3-oxo-1-(2,4,6-trimethybenzenesulfonyl)-1,2,3,4-tetrahydroquinoxaline-6-carboxamide]
